Values after ≈ are worked out from the molar mass of the structure shown.
Biological target: T1, α-glucosidase type I from S. cerevisiae
T1 construct: gene MAL12
Test: chromogenic pNPG hydrolysis, absorbance at […] nm, 96-well plate
Format: biochemical, Saccharomyces cerevisiae
Conditions: substrate p-nitrophenyl-α-D-glucopyranoside (20 µL of 5 mM stock), 0.1 M phosphate buffer pH 6.9, 37 °C, 15 min preincubation

- IC50: 3698.0 ± 76.5 µg/mL (≈ 5.73 mM)
Structure (SMILES): C[C@H]1O[C@H](O[C@H]2[C@H](O)[C@@H](O)[C@@H](O[C@H]3[C@H](O)[C@@H](O)C(O)O[C@@H]3CO)O[C@@H]2CO)[C@H](O)[C@@H](O)[C@@H]1N[C@H]1C=C(CO)[C@@H](O)[C@H](O)[C@H]1O (stereo partly shown) [Acarbose]

From paper PMC10420655, “Evaluation of α-Glucosidase Inhibition and Antihyperglycemic Activity of Extracts Obtained from Leaves and Flowers of Rumex crispus L” (Molecules, 2023)
